Values of other authors in US11260097B2, “Immunomodulatory composition to treat and/or prevent COVID-19 illness” (priority 2020, dated 2022).

Legend:
[1] = high doses
[2] = in vivo

C[C@@H]1O[C@@H](O[C@H]2[C@H](O[C@H]3CC[C@@]4(C)[C@@H](CC[C@]5(C)[C@@H]4CC=C4[C@@H]6CC(C)(C)CC[C@]6(C(=O)O)CC[C@]45C)[C@]3(C)CO)OC[C@H](O)[C@@H]2O)[C@H](O)[C@H](O)[C@H]1O [alpha-heridin, alpha-hederin]
water solubility: water soluble

CC1=CC(=O)C(C(C)C)=CC1=O [thymoquinone, 2-isopropyl-5-methyl-1,4benzoquinone]
toxicity [1]: toxicity at high doses | water solubility: poor water solubility

Nigellidine
solubility in acid media: soluble in acid media

glycophosphopeptical [AM3]
onset of clinical improvement in cough, sputum and shortness of breath [2]: 3 days
